Key:
[1] = test system: Tyrosine-protein kinase ABL1 (Homo sapiens), P00519 [H396P]; conditions: Compound concentration 1000.0 nM
[2] = molecular target: Mitogen-activated protein kinase 8 (Homo sapiens) (UniProt P45983); conditions: Compound concentration 1000.0 nM
[3] = molecular target: Serine/threonine-protein kinase TBK1 (Homo sapiens) (UniProt Q9UHD2); conditions: Compound concentration 1000.0 nM
[4] = molecular target: Tyrosine-protein kinase SYK (Homo sapiens) (UniProt P43405); conditions: Compound concentration 1000.0 nM
[5] = molecular target: Dual specificity testis-specific protein kinase 1 (Homo sapiens) (UniProt Q15569); conditions: Compound concentration 1000.0 nM
[6] = molecular target: Tyrosine-protein kinase Mer (Homo sapiens) (UniProt Q12866); conditions: Compound concentration 1000.0 nM
[7] = molecular target: Serine/threonine-protein kinase PLK1 (Homo sapiens) (UniProt P53350); conditions: Compound concentration 1000.0 nM
[8] = molecular target: Mast/stem cell growth factor receptor Kit (Homo sapiens) (UniProt P10721); conditions: Compound concentration 1000.0 nM
[9] = molecular target: Serine/threonine-protein kinase MARK1 (Homo sapiens) (UniProt Q9P0L2); conditions: Compound concentration 1000.0 nM
[10] = test system: eIF-2-alpha kinase GCN2 (Homo sapiens), Q9P2K8 [S808G]; conditions: Compound concentration 1000.0 nM
[11] = test system: Phosphatidylinositol 4,5-bisphosphate 3-kinase catalytic subunit alpha isoform (Homo sapiens), P42336 [I800L]; conditions: Compound concentration 1000.0 nM
Phosphatidylinositol 4,5-bisphosphate 3-kinase catalytic subunit alpha isoform (Homo sapiens), P42336 [I800L], sequence (P42336 whole entry I800L, canonical isoform): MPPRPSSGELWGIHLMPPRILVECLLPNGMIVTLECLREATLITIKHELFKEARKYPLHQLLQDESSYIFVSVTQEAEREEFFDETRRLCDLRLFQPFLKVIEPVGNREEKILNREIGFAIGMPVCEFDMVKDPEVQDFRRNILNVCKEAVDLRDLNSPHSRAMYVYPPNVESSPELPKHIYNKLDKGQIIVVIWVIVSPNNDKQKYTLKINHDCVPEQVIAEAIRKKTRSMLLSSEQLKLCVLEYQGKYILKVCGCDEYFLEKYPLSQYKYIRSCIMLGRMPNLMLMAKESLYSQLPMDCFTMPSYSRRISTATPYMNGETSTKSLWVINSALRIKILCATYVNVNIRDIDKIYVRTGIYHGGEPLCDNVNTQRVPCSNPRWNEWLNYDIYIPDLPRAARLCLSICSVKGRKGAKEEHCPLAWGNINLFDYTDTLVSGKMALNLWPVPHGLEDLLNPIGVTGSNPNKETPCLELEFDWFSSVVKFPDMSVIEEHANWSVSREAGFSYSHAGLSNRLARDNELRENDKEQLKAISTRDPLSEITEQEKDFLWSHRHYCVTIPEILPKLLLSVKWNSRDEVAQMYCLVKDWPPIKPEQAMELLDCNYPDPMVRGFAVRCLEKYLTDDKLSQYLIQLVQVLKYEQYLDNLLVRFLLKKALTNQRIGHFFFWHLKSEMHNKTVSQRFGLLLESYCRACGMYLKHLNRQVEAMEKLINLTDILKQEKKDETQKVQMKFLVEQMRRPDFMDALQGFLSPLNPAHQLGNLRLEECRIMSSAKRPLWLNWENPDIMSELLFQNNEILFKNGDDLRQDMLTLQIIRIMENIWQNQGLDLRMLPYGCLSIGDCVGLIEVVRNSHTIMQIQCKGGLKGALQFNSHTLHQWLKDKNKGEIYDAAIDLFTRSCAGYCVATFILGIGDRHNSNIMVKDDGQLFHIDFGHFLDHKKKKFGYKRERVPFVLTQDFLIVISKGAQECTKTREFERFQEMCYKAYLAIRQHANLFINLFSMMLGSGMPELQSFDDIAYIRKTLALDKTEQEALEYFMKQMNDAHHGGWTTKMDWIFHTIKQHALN

[12] = molecular target: Dual specificity protein kinase TTK (Homo sapiens) (UniProt P33981); conditions: Compound concentration 1000.0 nM
Dual specificity protein kinase TTK (Homo sapiens), sequence (P33981 whole entry): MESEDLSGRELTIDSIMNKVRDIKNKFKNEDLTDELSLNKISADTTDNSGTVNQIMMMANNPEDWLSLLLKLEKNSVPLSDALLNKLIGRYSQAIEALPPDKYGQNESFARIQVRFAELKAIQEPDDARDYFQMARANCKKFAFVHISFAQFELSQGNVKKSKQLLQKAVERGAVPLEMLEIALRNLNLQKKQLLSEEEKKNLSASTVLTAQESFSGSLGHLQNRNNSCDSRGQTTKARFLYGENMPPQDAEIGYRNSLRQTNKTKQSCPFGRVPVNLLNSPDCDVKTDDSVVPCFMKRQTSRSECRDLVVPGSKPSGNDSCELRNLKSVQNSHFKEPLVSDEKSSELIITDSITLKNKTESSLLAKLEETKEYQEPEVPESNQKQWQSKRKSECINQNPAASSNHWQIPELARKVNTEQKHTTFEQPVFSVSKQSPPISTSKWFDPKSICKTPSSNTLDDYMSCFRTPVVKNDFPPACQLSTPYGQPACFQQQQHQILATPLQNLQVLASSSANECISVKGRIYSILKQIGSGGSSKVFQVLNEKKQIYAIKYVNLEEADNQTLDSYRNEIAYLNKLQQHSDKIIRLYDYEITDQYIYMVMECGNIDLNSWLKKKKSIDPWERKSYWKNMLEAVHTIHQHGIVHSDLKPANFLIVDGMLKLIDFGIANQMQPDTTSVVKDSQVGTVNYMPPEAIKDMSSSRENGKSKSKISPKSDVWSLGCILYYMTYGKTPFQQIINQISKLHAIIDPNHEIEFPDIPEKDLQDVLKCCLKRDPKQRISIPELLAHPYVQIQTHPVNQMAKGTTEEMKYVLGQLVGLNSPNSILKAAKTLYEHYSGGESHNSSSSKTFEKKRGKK

[13] = molecular target: Protein kinase C iota type (Homo sapiens) (UniProt P41743); conditions: Compound concentration 1000.0 nM
[14] = molecular target: RAF proto-oncogene serine/threonine-protein kinase (Homo sapiens) (UniProt P04049); conditions: Compound concentration 1000.0 nM
[15] = test system: Epidermal growth factor receptor (Homo sapiens), P00533 [UNDEFINED MUTATION]; conditions: Compound concentration 1000.0 nM
[16] = molecular target: Fibroblast growth factor receptor 1 (Homo sapiens) (UniProt P11362); conditions: Compound concentration 1000.0 nM
[17] = molecular target: Ribosomal protein S6 kinase alpha-1 (Homo sapiens) (UniProt Q15418); conditions: Compound concentration 1000.0 nM
[18] = molecular target: Casein kinase I isoform gamma-3 (Homo sapiens) (UniProt Q9Y6M4); conditions: Compound concentration 1000.0 nM
[19] = molecular target: Mitogen-activated protein kinase kinase kinase 2 (Homo sapiens) (UniProt Q9Y2U5); conditions: Compound concentration 1000.0 nM
[20] = molecular target: Cyclin-dependent kinase 15 (Homo sapiens) (UniProt Q96Q40); conditions: Compound concentration 1000.0 nM
[21] = test system: Tyrosine-protein kinase ABL1 (Homo sapiens), P00519 [Q252H]; conditions: Compound concentration 1000.0 nM
[22] = molecular target: Death-associated protein kinase 1 (Homo sapiens) (UniProt P53355); conditions: Compound concentration 1000.0 nM
[23] = molecular target: Mitogen-activated protein kinase 10 (Homo sapiens) (UniProt P53779); conditions: Compound concentration 1000.0 nM
[24] = molecular target: Ephrin type-A receptor 5 (Homo sapiens) (UniProt P54756); conditions: Compound concentration 1000.0 nM
Ephrin type-A receptor 5 (Homo sapiens), sequence (P54756 whole entry): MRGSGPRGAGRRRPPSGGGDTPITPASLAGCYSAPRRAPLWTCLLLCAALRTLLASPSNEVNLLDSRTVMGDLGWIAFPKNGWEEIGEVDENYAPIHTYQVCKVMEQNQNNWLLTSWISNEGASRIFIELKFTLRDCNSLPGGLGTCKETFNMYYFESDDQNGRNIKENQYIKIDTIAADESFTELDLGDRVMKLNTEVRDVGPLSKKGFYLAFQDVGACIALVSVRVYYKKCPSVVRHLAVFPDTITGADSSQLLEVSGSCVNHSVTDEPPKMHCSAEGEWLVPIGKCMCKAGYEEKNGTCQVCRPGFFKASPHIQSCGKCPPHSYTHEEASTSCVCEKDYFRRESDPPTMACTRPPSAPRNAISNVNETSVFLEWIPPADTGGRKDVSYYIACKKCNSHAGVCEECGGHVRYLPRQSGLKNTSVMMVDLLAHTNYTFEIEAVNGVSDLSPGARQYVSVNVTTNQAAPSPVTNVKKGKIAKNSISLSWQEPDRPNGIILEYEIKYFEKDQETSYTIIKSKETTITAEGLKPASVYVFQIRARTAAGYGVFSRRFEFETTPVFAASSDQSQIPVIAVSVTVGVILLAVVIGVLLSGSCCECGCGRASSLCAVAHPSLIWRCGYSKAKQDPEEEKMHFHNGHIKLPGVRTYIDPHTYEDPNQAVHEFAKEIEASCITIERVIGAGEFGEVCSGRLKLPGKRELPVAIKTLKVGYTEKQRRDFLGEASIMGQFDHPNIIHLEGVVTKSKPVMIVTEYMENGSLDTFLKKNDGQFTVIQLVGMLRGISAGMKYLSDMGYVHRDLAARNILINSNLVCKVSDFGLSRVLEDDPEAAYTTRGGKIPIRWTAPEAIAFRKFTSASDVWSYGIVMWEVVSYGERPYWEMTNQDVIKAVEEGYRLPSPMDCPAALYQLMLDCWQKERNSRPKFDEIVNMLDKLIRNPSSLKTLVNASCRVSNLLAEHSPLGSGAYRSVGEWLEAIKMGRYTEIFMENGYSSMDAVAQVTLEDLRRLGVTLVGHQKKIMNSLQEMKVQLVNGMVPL

[25] = molecular target: Serine/threonine-protein kinase PLK2 (Homo sapiens) (UniProt Q9NYY3); conditions: Compound concentration 1000.0 nM
Serine/threonine-protein kinase PLK2 (Homo sapiens), sequence (Q9NYY3 whole entry, looked up): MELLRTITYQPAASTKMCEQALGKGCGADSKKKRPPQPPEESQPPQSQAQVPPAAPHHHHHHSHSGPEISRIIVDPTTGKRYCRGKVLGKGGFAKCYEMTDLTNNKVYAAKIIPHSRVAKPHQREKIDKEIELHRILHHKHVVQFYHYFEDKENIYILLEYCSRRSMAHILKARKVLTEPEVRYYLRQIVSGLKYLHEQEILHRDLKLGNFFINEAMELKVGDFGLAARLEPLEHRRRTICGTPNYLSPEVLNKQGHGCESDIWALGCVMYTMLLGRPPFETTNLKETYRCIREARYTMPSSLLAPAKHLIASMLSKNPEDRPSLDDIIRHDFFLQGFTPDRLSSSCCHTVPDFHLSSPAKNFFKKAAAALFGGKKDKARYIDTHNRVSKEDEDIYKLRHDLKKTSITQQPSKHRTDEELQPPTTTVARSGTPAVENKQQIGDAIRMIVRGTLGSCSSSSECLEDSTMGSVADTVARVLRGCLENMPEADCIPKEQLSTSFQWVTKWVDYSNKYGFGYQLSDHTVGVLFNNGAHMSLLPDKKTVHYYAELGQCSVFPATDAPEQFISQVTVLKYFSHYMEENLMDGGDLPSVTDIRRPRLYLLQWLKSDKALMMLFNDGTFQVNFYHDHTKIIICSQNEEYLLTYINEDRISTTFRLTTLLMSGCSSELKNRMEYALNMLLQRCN

[26] = molecular target: Serine/threonine-protein kinase ICK (Homo sapiens) (UniProt Q9UPZ9); conditions: Compound concentration 1000.0 nM
[27] = molecular target: Serine/threonine-protein kinase PLK3 (Homo sapiens) (UniProt Q9H4B4); conditions: Compound concentration 1000.0 nM
[28] = molecular target: Macrophage colony-stimulating factor 1 receptor (Homo sapiens) (UniProt P07333); conditions: Compound concentration 1000.0 nM
[29] = molecular target: T1, D(4) dopamine receptor (Homo sapiens) (UniProt P21917); conditions: Compound concentration 10.0 uM
T1 sequence (whole entry): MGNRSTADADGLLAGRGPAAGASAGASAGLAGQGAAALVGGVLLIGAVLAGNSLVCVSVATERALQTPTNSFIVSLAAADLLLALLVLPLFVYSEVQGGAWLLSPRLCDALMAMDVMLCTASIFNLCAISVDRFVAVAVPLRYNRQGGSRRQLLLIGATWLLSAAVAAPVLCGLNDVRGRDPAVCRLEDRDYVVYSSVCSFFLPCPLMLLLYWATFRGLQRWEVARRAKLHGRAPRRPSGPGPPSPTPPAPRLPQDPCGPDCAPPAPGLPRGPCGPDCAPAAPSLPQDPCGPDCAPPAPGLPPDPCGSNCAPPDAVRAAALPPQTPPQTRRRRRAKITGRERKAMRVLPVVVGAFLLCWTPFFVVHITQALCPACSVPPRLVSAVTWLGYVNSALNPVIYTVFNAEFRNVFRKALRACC

[30] = molecular target: Ribosomal protein S6 kinase alpha-4 (Homo sapiens) (UniProt O75676); conditions: Compound concentration 1000.0 nM
[31] = molecular target: Mitogen-activated protein kinase 7 (Homo sapiens) (UniProt Q13164); conditions: Compound concentration 1000.0 nM
[32] = molecular target: Ephrin type-A receptor 8 (Homo sapiens) (UniProt P29322); conditions: Compound concentration 1000.0 nM
Rattus norvegicus = species on record: Rattus norvegicus; conditions: Compound concentration 10.0 uM
[33] = test system: Tyrosine-protein kinase ABL1 (Homo sapiens), P00519 [F317L]; conditions: Compound concentration 1000.0 nM
[34] = molecular target: Membrane-associated tyrosine- and threonine-specific cdc2-inhibitory kinase (Homo sapiens) (UniProt Q99640); conditions: Compound concentration 1000.0 nM
[35] = molecular target: Serine/threonine-protein kinase Nek9 (Homo sapiens) (UniProt Q8TD19); conditions: Compound concentration 1000.0 nM
[36] = molecular target: Angiopoietin-1 receptor (Homo sapiens) (UniProt Q02763); conditions: Compound concentration 1000.0 nM
[37] = molecular target: Serine/threonine-protein kinase TAO1 (Homo sapiens) (UniProt Q7L7X3); conditions: Compound concentration 1000.0 nM
Serine/threonine-protein kinase TAO1 (Homo sapiens), sequence (Q7L7X3 whole entry): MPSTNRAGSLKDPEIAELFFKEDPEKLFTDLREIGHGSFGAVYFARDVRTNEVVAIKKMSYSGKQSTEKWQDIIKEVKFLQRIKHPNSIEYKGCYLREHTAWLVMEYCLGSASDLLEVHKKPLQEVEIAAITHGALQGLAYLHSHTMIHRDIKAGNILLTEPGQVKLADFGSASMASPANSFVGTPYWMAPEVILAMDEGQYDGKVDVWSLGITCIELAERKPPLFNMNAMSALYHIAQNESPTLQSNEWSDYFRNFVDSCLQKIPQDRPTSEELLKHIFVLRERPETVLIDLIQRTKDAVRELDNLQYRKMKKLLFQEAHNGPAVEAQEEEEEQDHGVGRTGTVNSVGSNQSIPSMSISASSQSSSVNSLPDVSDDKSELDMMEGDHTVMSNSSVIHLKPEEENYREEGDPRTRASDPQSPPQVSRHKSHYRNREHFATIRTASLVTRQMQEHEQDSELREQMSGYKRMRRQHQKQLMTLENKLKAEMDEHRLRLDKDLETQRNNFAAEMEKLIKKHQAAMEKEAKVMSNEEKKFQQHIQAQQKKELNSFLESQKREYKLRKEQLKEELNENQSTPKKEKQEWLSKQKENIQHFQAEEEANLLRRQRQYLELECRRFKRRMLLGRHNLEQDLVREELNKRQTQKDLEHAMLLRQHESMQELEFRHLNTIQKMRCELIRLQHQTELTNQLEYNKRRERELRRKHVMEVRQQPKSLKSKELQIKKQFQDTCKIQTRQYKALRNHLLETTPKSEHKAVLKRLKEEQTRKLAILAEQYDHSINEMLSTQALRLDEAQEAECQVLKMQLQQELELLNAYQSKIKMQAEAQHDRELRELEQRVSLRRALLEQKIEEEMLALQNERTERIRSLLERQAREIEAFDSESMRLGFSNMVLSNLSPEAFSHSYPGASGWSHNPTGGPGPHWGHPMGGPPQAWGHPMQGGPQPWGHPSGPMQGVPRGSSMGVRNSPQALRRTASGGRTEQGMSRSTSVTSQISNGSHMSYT

[38] = molecular target: Cyclin-dependent kinase 4 (Homo sapiens) (UniProt P11802); conditions: Compound concentration 1000.0 nM
[39] = molecular target: Tyrosine-protein kinase Lck (Homo sapiens) (UniProt P06239); conditions: Compound concentration 1000.0 nM

Mitogen-activated protein kinase 8 (Homo sapiens), sequence (P45983 whole entry): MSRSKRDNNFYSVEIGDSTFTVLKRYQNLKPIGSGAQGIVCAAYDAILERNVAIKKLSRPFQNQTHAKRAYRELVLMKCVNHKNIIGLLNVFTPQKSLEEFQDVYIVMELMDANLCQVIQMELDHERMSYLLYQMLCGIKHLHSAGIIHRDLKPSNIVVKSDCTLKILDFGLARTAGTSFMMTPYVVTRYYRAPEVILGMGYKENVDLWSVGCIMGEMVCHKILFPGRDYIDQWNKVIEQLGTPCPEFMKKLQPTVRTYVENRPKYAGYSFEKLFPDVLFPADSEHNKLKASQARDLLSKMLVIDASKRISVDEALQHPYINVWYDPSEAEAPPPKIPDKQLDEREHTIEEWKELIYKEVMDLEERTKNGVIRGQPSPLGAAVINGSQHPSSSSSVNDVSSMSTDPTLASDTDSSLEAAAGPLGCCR

N#CC1(c2ccccn2)CCN(Cc2cc(C(=O)N3CCCC3)c(=O)n3ccccc23)CC1
inactive: residual activity [1] 100% | residual activity [2] 96% | residual activity [3] 99% | residual activity [4] 92% | residual activity [5] 90% | residual activity [6] 86% | residual activity [7] 100% | residual activity [8] 95% | residual activity [9] 100% | residual activity [10] 78% | residual activity [11] 72% | residual activity [12] 98% | residual activity [13] 87% | residual activity [14] 100% | residual activity [15] 92% | residual activity [16] 93% | residual activity [17] 79% | residual activity [18] 76% | residual activity [19] 100% | residual activity [20] 85% | residual activity [21] 90% | residual activity [22] 89% | residual activity [23] 96% | residual activity [24] 100% | residual activity [25] 100% | residual activity [26] 100% | residual activity [27] 100% | residual activity [28] 86% | inhibition [29] -8.64% | residual activity [30] 79% | residual activity [31] 63% | residual activity [32] 100% | inhibition (Rattus norvegicus) 46.5% | residual activity [33] 92% | residual activity [34] 79% | residual activity [35] 99% | residual activity [36] 85% | residual activity [37] 100% | residual activity [38] 98% | residual activity [39] 100%

N#CC1(c2ccccn2)CCN(Cc2cc(C(=O)O)c(=O)n3ccccc23)CC1 [MSD-M1PAM]
inactive: residual activity [1] 91% | residual activity [2] 85% | residual activity [3] 98% | residual activity [4] 92% | residual activity [5] 100% | residual activity [6] 100% | residual activity [7] 70% | residual activity [8] 100% | residual activity [9] 94% | residual activity [10] 100% | residual activity [11] 90% | residual activity [12] 88% | residual activity [13] 100% | residual activity [14] 100% | residual activity [15] 100% | residual activity [16] 98% | residual activity [17] 100% | residual activity [18] 93% | residual activity [19] 76% | residual activity [20] 100% | residual activity [21] 72% | residual activity [22] 100% | residual activity [23] 82% | residual activity [24] 89% | residual activity [25] 80% | residual activity [26] 75% | residual activity [27] 85% | residual activity [28] 100% | inhibition [29] -8.33% | residual activity [30] 94% | residual activity [31] 94% | residual activity [32] 100% | inhibition (Rattus norvegicus) 7.88% | residual activity [33] 57% | residual activity [34] 100% | residual activity [35] 100% | residual activity [36] 95% | residual activity [37] 100% | residual activity [38] 82% | residual activity [39] 97%

— ChEMBL document CHEMBL4507295 (2021)
